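Briefly, cells in 96-well plates were exposed to five compound concentrations for 48 h, and endpoints were estimated by linear interpolation. At the GI50, growth is halved.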 Active and inactive are the calls of the source. Cut-off read from the data, not from the text of the source: active = GI50 up to about 1.1 µM and inactive = higher.

What all share (assay): NCI tumour cell line growth inhibition, 48 h
The subject of experiment [1] is A549.
Experiment [2] concerns EKVX.
In experiment [3] the test system is HCT-116.
Experiment [4] relates to HCT-15.
The subject of experiment [5] is HT-29.
The test system of experiment [6] is IGROV-1.
Experiment [7] deals with MOLT-4.
The test system of experiment [8] is Malme-3M.
Experiment [9] deals with NCI-H23.
In experiment [10] the test system is NCI-H460.
Experiment [11] relates to OVCAR-4.
In experiment [12] the test system is OVCAR-8.
In experiment [13] the test system is RXF 393.
For experiment [14], the system named is SF-539.
The subject of experiment [15] is SK-MEL-5.
The test system of experiment [16] is SNB-19.
Experiment [17] has as its system HOP-92.

Regarding `COC1OC2COC(C)(C)OC2C(OC(C)=O)C1NC(=O)N(CCCl)N=O` (stereo unspecified), the GI50 in experiment [1] was 83 µM (inactive); in experiment [2], > 100 µM (inactive); in [3] it was > 100 µM (inactive); in experiment [4], > 100 µM; in experiment [5], > 100 µM (inactive); in [6], > 100 µM (inactive). Further, the GI50 was 59.6 µM (inactive) in [7]; > 100 µM (inactive) in experiment [8]; > 100 µM (inactive) in [9]; 46.7 µM (inactive) in [10]; > 100 µM (inactive) in [11]; > 100 µM (inactive) in experiment [12]. Also, the GI50 was > 100 µM (inactive) in [13], 21.4 µM (inactive) in experiment [14], > 100 µM (inactive) in [15] and 46 µM (inactive) in experiment [16].

On to `COc1cc2c(c3c1c(=O)c1ccccc1n3C)C=CC(C)(C)O2` [ACRONINE], for which the GI50 in experiment [1] is > 100 µM (inactive); in [3], > 100 µM (inactive); in [4], 45.3 µM; in experiment [17], > 100 µM (inactive); in experiment [5] it was 56.9 µM (inactive); in [6], 58.5 µM (inactive). The GI50 in experiment [7] was 16.2 µM (inactive); in experiment [8] it was > 100 µM (inactive); in [9], 33.4 µM (inactive); in experiment [10] it was 43.6 µM (inactive); in [11], > 100 µM (inactive); in experiment [12], > 100 µM (inactive). Besides, the GI50 was 25.1 µM (inactive) in experiment [13], 37.8 µM (inactive) in experiment [14], > 100 µM (inactive) in [15] and > 100 µM (inactive) in experiment [16].

On to `Cc1ccc([S+]([O-])C(C)C(Cl)c2ccccc2)cc1` (stereo unspecified), for which the GI50 was > 100 µM (inactive) in experiment [3]; > 100 µM in experiment [4]; > 100 µM (inactive) in experiment [17]; 38.8 µM (inactive) in [5]; 60.4 µM (inactive) in experiment [6]; 55.7 µM (inactive) in experiment [7]. Moreover, the GI50 in [9] was 72.3 µM (inactive); in experiment [10] it was > 100 µM (inactive); in experiment [11], > 100 µM (inactive); in [12], 78 µM (inactive); in [13] it was 53.7 µM (inactive); in [14], > 100 µM (inactive). The GI50 in experiment [15] was 43.6 µM (inactive).

Take `CC(=O)NC1C(OCc2ccccc2)OC(COC(=O)CCCCCCCCCCNC(=O)c2cccc3c(=O)c4ccccc4[nH]c23)C(O)C1OC(C)C(=O)NC(C)C(=O)NC(CCC(N)=O)C(N)=O` (stereo unspecified): the GI50 was 40.9 µM (inactive) in experiment [1]; > 100 µM (inactive) in [2]; 79.8 µM (inactive) in [3]; 85.3 µM in experiment [4]; 75.9 µM (inactive) in experiment [5]; 50.1 µM (inactive) in [6]. Further, the GI50 in experiment [7] was 47.1 µM (inactive); in [9] it was 46.1 µM (inactive); in experiment [10], 61.5 µM (inactive); in experiment [11] it was 61 µM (inactive); in experiment [12], 94.8 µM (inactive); in [14], 92.9 µM (inactive). The GI50 in experiment [15] is 37.4 µM (inactive); in [16], 47.3 µM (inactive).

Regarding `[N-]=[N+]=NC1C(Br)C(=O)NC(=O)N1[C@H]1C[C@H](O)[C@@H](CO)O1` (stereo partly specified), the GI50 in [1], in experiment [2], in experiment [17], in experiment [5], in [6] and in experiment [7] was > 100 µM (inactive) each time. Further, the GI50 in experiment [9], in experiment [10], in experiment [11], in experiment [12], in experiment [13] and in [14] was > 100 µM (inactive) in each case. For the same molecule, the GI50 in experiment [16] was > 100 µM (inactive).

As for `O=C(CSc1nnc(-c2ccc(/N=C\c3ccc(Cl)cc3)cc2)o1)Nc1ccc(Cl)cc1`, the GI50 in [1] is > 100 µM (inactive); in experiment [2], > 100 µM (inactive); in [3], > 100 µM (inactive); in experiment [4], > 100 µM; in [5] it was > 100 µM (inactive); in experiment [7], > 100 µM (inactive). In addition, the GI50 in [8], in experiment [9], in experiment [10], in experiment [11], in [12] and in experiment [13] was > 100 µM (inactive) throughout. The GI50 in experiment [15] and in experiment [16] was > 100 µM (inactive) in each case.

With `CC(C)C/C(CC(=O)CCC(=O)Nc1ccccc1[N+](=O)[O-])=N\NC(=O)c1cc2ccccc2cc1O`, the GI50 in experiment [1] is > 100 µM (inactive); in [2] it was 34 µM (inactive); in experiment [3] it was 49.1 µM (inactive); in experiment [4], 31.6 µM; in experiment [17], 64 µM (inactive); in [5] it was 91.2 µM (inactive). Further, the GI50 in experiment [6] is 26 µM (inactive); in experiment [7], 20.2 µM (inactive); in [8], 42.6 µM (inactive); in experiment [9], 50.7 µM (inactive); in experiment [10] it was 33.7 µM (inactive); in experiment [12], 23.1 µM (inactive). In addition, the GI50 in experiment [13] is 9.79 µM (inactive); in experiment [14] it was 27.1 µM (inactive); in experiment [15], 28.1 µM (inactive); in experiment [16], 45.5 µM (inactive).

For `CCOC12SC(Nc3ccc(C)cc3)=NN1C(=S)N(C)N=C2C` (stereo unspecified), the GI50 in [1] is > 100 µM (inactive); in [2], > 100 µM (inactive); in [3], > 100 µM (inactive); in experiment [4], > 100 µM; in experiment [17] it was > 100 µM (inactive); in experiment [5], > 100 µM (inactive). Further, the GI50 in experiment [6], in experiment [7], in experiment [9], in experiment [10], in experiment [11] and in [12] was > 100 µM (inactive) throughout. The GI50 in [13], in experiment [14], in experiment [15] and in [16] was > 100 µM (inactive) in each case.

With `N#CC12CCC1C1CCCCC12N1CCSCC1` (stereo unspecified), the GI50 in [1] is > 100 µM (inactive); in experiment [3], > 100 µM (inactive); in experiment [4], > 100 µM; in [17], > 100 µM (inactive); in experiment [5] it was > 100 µM (inactive); in [6], > 100 µM (inactive). Also, the GI50 in [7] was 81.8 µM (inactive); in [9], > 10 µM (inactive); in experiment [10] it was > 100 µM (inactive); in [11] it was > 10 µM (inactive); in experiment [12], > 100 µM (inactive); in [13], 18.1 µM (inactive). For the same molecule, the GI50 in experiment [14] and in [16] was > 100 µM (inactive) in each case.

Take `CCOC(=O)C1C(c2ccc([N+](=O)[O-])cc2)NC(c2ccc([N+](=O)[O-])cc2)C(C(=O)OC)S1(=O)=O` (stereo unspecified): the GI50 in experiment [1] is > 100 µM (inactive); in [2], > 100 µM (inactive); in experiment [3], > 100 µM (inactive); in experiment [4] it was > 100 µM; in experiment [5], > 100 µM (inactive); in [6] it was > 100 µM (inactive). For the same molecule, the GI50 in [7], in experiment [8], in experiment [9], in experiment [10], in experiment [11] and in experiment [12] was > 100 µM (inactive) in each case. The GI50 in [13] and in experiment [16] was > 100 µM (inactive) in each case.

With `C/C=C(\CCOS(=O)(=O)c1ccc(C)cc1)[Si](C)(C)C`, the GI50 in experiment [1] is > 100 µM (inactive); in experiment [2] it was > 100 µM (inactive); in experiment [3] it was > 100 µM (inactive); in [4] it was > 100 µM; in experiment [17], > 100 µM (inactive); in experiment [5] it was > 100 µM (inactive). Also, the GI50 in experiment [6], in [7], in experiment [8], in [9], in experiment [10] and in [12] was > 100 µM (inactive) in each case. Moreover, the GI50 in [13], in [14], in experiment [15] and in [16] was > 100 µM (inactive) each time.

Regarding `COC(=O)c1cc2c(c(C(=O)OC)c1O)C(=O)C=CC2=O`, the GI50 is > 42.8 µM (inactive) in experiment [1]; > 21.2 µM (inactive) in experiment [2]; > 9.1 µM (inactive) in experiment [3]; 21.6 µM in [4]; 8.2 µM (inactive) in experiment [17]; > 9.1 µM (inactive) in [5]. Also, the GI50 in experiment [6] is 24.1 µM (inactive); in experiment [8], > 40.8 µM (inactive); in experiment [9], > 31.6 µM (inactive); in experiment [10], > 50.1 µM (inactive); in experiment [11], > 38.8 µM (inactive); in experiment [12], > 21.4 µM (inactive). Moreover, the GI50 was > 29.1 µM (inactive) in experiment [13], > 41.6 µM (inactive) in experiment [14], 37.2 µM (inactive) in [15] and > 42.7 µM (inactive) in experiment [16].

In the case of `COc1ccc2nc(-c3ccccn3)cc(O)c2c1`, the GI50 was 44 µM (inactive) in experiment [1]; 55.3 µM (inactive) in experiment [2]; 43.9 µM (inactive) in experiment [17]; 42.8 µM (inactive) in experiment [5]; 44.6 µM (inactive) in [6]; 28.8 µM (inactive) in experiment [7]. Besides, the GI50 in experiment [8] was 24 µM (inactive); in experiment [9], 41.9 µM (inactive); in [10], 34.7 µM (inactive); in [11], 72.3 µM (inactive); in experiment [12], 39.8 µM (inactive); in experiment [14], 30 µM (inactive). Moreover, in experiment [16], the GI50 is > 100 µM (inactive).
